Results reported in patent US20260250318A1, “COMPOSITIONS AND METHODS FOR CROSSING THE BLOOD BRAIN BARRIER” (VOYAGER THERAPEUTICS, INC., priority 2022, published 2026).

How the values were obtained:
[1] = system: brains, heart, liver, muscle, and DRG of the NHPs; assay: Maturation of TTM-001 and TTM-002 capsids, NGS enrichment in NHP tissues; format: in vivo; conditions: relative to AAV9 control
In short: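 Variants carry mutations within and flanking the loop IV peptide insert: positions 450–466 were triplet-randomized, while positions 449–466 received low-frequency point mutations. The combined pool went into two NHPs, and each peptide was scored by NGS enrichment ratio against AAV9.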

brain = assay: Matured TTM-001 and TTM-002 variants, NGS enrichment in mouse brain; format: in vivo, mice; conditions: relative to AAV9 control
[2] = NGS fold-enrichment of matured AAV capsid variants, NHP brain, RNA
[3] = NGS fold-enrichment of RNA, NHP brain
[4] = NGS fold-enrichment, DRG of NHPs
[5] = NGS fold-enrichment, NHP liver DNA
[6] = NGS fold-enrichment, NHP liver RNA
[7] = NGS fold-enrichment, NHP muscle
[8] = NGS fold-enrichment, RNA, brain of NHPs
[9] = NGS fold-enrichment, heart of NHPs
[10] = NGS fold-enrichment, liver DNA of NHPs
[11] = NGS fold-enrichment, liver RNA of NHPs
[12] = NGS fold-enrichment, muscle of NHPs
[13] = NGS fold-enrichment, brain of mice
[14] = NGS fold-enrichment, mouse brain

Row | Sequence | Fold Enrichment relative to AAV9, Brain (NHP) [1, 2] [fold] | Fold Enrichment relative to AAV9, DRG (NHP) ([1]; NHP DRG) [fold] | Fold Enrichment relative to AAV9, Heart (NHP) ([1]; NHP heart) [fold] | Fold Enrichment relative to AAV9, Liver DNA (NHP) ([1]; NHP liver, DNA) [fold] | Fold Enrichment relative to AAV9, Liver RNA (NHP) ([1]; NHP liver, RNA) [fold] | Fold Enrichment relative to AAV9, Muscle (NHP) ([1]; NHP muscle) [fold] | Fold Enrichment relative to AAV9, Brain (Mouse) (brain; mouse brain) [fold] | Fold Enrichment relative to AAV9, Brain (NHP) [1, 3] [fold] | Fold Enrichment relative to AAV9, DRG (NHP) [1, 4] [fold] | Fold Enrichment relative to AAV9, DRG (NHP) ([1]; NGS fold-enrichment, NHP DRG) [fold] | Fold Enrichment relative to AAV9, Heart (NHP) ([1]; NGS fold-enrichment, NHP heart) [fold] | Fold Enrichment relative to AAV9, Liver DNA (NHP) [1, 5] [fold] | Fold Enrichment relative to AAV9, Liver RNA (NHP) [1, 6] [fold] | Fold Enrichment relative to AAV9, Muscle (NHP) [1, 7] [fold] | Fold Enrichment relative to AAV9, Brain (NHP) [1, 8] [fold] | Fold Enrichment relative to AAV9, Heart (NHP) [1, 9] [fold] | Fold Enrichment relative to AAV9, Liver DNA (NHP) [1, 10] [fold] | Fold Enrichment relative to AAV9, Liver RNA (NHP) [1, 11] [fold] | Fold Enrichment relative to AAV9, Muscle (NHP) [1, 12] [fold] | Fold Enrichment relative to AAV9, Brain (Mouse) (brain; [13]) [fold] | further results
1 | KTEYISGSPHSKAQNQQT | 57.891 | 0.000 | 0.000 | 0.075 | 0.076 | 0.000 | 57.620 | – | – | – | – | – | – | – | – | – | – | – | – | – | –
2 | KTEYNSGSPHSKAQNQQT | 50.256 | 0.000 | 0.000 | 0.009 | 0.000 | 0.000 | 62.679 | – | – | – | – | – | – | – | – | – | – | – | – | – | –
3 | KTFHGSGSPHSKTQNQQT | – | – | – | – | – | – | – | 94.714 | 0.000 | 0.000 | 0.210 | 0.000 | 0.000 | 0.120 | 94.714 | 0.210 | 0.000 | 0.000 | 0.120 | 51.119 | Fold Enrichment relative to AAV9, Brain (Mouse) (brain; [14]): 51.119 fold
4 | KTFKGSGSPHSKAPNQQT | – | – | – | – | – | – | – | 80.890 | 0.000 | 0.000 | 0.000 | 0.017 | 0.000 | 0.000 | 80.890 | 0.000 | 0.017 | 0.000 | 0.000 | 71.144 | Fold Enrichment relative to AAV9, Brain (Mouse) (brain; [14]): 71.144 fold
5 | KTFNASGSPHSKAPNQQT | – | – | – | – | – | – | – | – | 0.208 | – | – | – | – | – | 65.392 | 0.000 | 0.156 | 0.215 | 0.000 | 66.275 | –
6 | KTFNGGGSPHSKAQYQQT | 58.609 | 0.000 | 0.000 | 0.045 | 0.163 | 0.000 | 72.618 | – | – | – | – | – | – | – | – | – | – | – | – | – | –
7 | KTFNGSGSPHNKAQNHQT | – | – | – | – | – | – | – | – | 0.000 | – | – | – | – | – | 64.060 | 0.000 | 0.317 | 0.094 | 0.035 | 67.757 | –
8 | KTFNGSGSPHSKAPNLQT | – | – | – | – | – | – | – | 121.436 | 0.000 | 0.000 | 0.167 | 0.015 | 0.000 | 0.000 | 121.436 | 0.167 | 0.015 | 0.000 | 0.000 | 168.920 | Fold Enrichment relative to AAV9, Brain (Mouse) (brain; [14]): 168.920 fold
